Assay results: patent US20190330167A1, “ACTIVATORS OF HIV LATENCY” (priority 2016, published 2019)

Tested on: HIV-1 long terminal repeat (LTR)-driven luciferase reporter gene in FlipIn.FM HEK293 cells
Test: cells
Format: cell-based
Experimental: FIG. 44. […] The FlipIn.FM model of HIV-1 latency was treated with JQ1 (+) and DP#14 (Compound 7) alone at 10 μM and in combination, and the HIV-1 gene expression measured 48 hrs post treatment. Error bars represent standard deviation of n=3 experiments. OPTI represents media alone, without DP#14.
FIG. 46. […] The FlipIn.FM model of HIV-1 latency was treated with PFI-1 and DP#14 alone at 10 μM and in combination, and the HIV-1 gene expression measured 48 hrs post treatment. Error bars represent standard deviation of n=3 experiments. OPTI represents media alone, without DP#14.
Explicitly, HEK293 derived FlipIn-FM and FlipIn-RV dual reporter cells each include a single stable HIV-1 long terminal repeat (LTR)-driven luciferase reporter genes, with a second complimentary non-HIV (off-target) luciferase reporter. These cell lines model post integration latency and read-through transcription by expressing a low level of HIV-1 Tat protein via a native Internal Ribosome Entry Site (IRES) found within Tat, from a chimeric cellular-tat gene cassette. FlipIn-FM and FlipIn-RV clones were chosen for low basal levels of LTR activity and high responsiveness to Tat as well as many Latency Reversing Agents (LRAs).
The dual reporter cell lines contain three stably integrated constructs that together allow for detection of novel LRAs, capable of potent and specific HIV reactivation. The FlipIn.FM line contains a proviral LTR-driven nef/CBR reporter fusion gene, allowing for detection of viral gene expression. A second CMV-driven CBG luciferase reporter allows for detection of off target drug effects, including non-specific activation and drug toxicity. The third construct contains the first coding exon of HIV-1 tat, within human Growth Hormone (hGH) as a chimeric gene, expressing HIV-1 Tat protein from an IRES mechanism that underlies the tat exon. This construct models read-through transcription and the low level of Tat protein expression that occurs during post integration latency. The counter screening reverse cell line, FlipIn.RV, contains the same three components with the Click Beetle Luciferase genes in the opposite orientation (LTR-CBG and CMV-CBR) for counter screening.
Compounds were evaluated in an 11-point titration using normal CMV-CBG/LTR-CBR reporter cell line and an 11 point reverse CMV-CBR/LTR-CBG reporter cell line.
The FlipIn cell lines were therefore designed with a dual purpose, to detect novel compounds that reactivate HIV-1 and to also screen out compounds that behaved in a largely non-specific manner. To achieve the latter, the cell lines contain an “off target” reporter gene construct, driven by the unrelated CMV-IE promoter, that allows for the detection of drug mediated off target effects including global gene activation as well as possible toxicity.
The HIV-LTR driven latent reporter gene identifies the HIV-specific activation, and the term “global reporter” is interchangeable with “off target reporter” and refers to the unrelated CMV-IE promoter driven reporter gene, which is used as a surrogate for global gene activation. […] The highest concentration tested here was 40 μM.

## O=C(CCCOc1ccccc1)Nc1ncc(Br)s1 [Compound 7]
FlipIn.FM model, alone at 10 μM and in combination, 48 hrs post treatment
  fold change in HIV-1 gene expression over the unstimulated baseline: 4.2 fold
Human immunodeficiency virus 1, HEK293, HIV-LTR driven latent reporter, 11-point, 2-fold dilution series, highest concentration 40 μM, read-out: Latent reporter Av EC50
  EC50: 1640 nM
